Laboratory results as given in ChEMBL document CHEMBL1136955, “Compelling P1 substituent affect on metalloprotease binding profile enables the design of a novel cyclohexyl core scaffold with excellent MMP selectivity and HER-2 sheddase inhibition” (Bioorg Med Chem Lett, 2009).

Tests used:
[1] = target: 72 kDa type IV collagenase (Homo sapiens, UniProt P08253); assay: Inhibition of human MMP2
Interstitial collagenase = target: T1, Interstitial collagenase (Homo sapiens, UniProt P03956); assay: Inhibition of human MMP1
T1 sequence (P03956 whole entry): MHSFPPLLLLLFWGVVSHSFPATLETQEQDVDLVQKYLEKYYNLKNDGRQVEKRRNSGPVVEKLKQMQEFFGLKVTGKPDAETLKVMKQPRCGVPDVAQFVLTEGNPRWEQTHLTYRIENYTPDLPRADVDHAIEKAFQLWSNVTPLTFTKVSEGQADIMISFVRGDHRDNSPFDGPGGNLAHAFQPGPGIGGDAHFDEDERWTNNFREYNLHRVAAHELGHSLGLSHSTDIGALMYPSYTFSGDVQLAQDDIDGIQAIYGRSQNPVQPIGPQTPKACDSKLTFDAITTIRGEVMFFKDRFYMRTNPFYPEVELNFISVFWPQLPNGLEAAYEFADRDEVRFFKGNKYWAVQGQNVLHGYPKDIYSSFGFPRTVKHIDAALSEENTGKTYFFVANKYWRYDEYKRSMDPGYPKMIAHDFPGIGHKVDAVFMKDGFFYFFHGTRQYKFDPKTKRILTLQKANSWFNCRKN

Stromelysin-1 = Stromelysin-1 (Homo sapiens, UniProt P08254); assay: Inhibition of human MMP3
[2] = target: Matrix metalloproteinase-9 (Homo sapiens, UniProt P14780); assay: Inhibition of human MMP9
[3] = target: T2, Disintegrin and metalloproteinase domain-containing protein 10 (Homo sapiens, UniProt O14672); assay: Inhibition of human recombinant ADAM10
T2 sequence (O14672 whole entry): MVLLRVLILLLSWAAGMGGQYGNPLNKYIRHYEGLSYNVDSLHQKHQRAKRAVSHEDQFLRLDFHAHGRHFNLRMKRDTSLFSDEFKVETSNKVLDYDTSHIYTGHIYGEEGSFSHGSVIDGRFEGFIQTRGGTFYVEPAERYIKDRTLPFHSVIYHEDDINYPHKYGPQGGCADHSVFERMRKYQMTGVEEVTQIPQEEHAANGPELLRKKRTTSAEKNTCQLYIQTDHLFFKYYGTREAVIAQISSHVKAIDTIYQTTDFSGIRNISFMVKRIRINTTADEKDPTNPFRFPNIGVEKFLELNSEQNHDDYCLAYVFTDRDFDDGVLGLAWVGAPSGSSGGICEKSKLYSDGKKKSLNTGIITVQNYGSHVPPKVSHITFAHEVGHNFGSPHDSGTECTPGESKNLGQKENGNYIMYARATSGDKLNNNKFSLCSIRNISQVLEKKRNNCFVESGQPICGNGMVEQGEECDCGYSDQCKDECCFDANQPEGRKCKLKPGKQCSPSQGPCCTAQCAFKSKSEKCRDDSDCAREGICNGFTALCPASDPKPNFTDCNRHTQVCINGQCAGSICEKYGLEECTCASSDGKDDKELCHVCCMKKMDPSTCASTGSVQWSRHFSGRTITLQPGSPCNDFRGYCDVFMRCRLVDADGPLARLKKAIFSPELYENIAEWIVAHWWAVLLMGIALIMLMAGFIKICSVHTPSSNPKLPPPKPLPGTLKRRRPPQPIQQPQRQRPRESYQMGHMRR

Homo sapiens = organism: Homo sapiens; assay: Selectivity ratio of IC50 for human MMP2 to IC50 for human ADAM10

72 kDa type IV collagenase, sequence (P08253 whole entry): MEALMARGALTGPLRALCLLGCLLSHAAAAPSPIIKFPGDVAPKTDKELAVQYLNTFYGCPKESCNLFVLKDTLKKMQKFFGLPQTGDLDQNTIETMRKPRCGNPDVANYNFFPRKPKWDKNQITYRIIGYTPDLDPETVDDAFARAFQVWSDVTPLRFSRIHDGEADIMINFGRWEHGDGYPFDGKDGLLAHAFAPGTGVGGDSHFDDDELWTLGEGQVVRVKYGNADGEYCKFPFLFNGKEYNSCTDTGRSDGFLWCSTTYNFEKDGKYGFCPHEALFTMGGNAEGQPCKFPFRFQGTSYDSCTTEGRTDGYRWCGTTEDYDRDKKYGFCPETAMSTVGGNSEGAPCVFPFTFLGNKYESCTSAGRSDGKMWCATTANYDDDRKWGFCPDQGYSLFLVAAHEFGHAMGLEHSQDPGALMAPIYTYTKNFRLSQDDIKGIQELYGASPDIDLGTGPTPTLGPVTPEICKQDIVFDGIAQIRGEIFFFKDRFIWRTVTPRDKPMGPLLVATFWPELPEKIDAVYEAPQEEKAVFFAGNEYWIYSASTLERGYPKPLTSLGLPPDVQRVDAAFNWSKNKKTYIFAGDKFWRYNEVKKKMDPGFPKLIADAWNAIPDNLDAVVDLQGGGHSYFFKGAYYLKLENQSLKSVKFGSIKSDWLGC
Matrix metalloproteinase-9, sequence (P14780 whole entry, the tested form may be a part): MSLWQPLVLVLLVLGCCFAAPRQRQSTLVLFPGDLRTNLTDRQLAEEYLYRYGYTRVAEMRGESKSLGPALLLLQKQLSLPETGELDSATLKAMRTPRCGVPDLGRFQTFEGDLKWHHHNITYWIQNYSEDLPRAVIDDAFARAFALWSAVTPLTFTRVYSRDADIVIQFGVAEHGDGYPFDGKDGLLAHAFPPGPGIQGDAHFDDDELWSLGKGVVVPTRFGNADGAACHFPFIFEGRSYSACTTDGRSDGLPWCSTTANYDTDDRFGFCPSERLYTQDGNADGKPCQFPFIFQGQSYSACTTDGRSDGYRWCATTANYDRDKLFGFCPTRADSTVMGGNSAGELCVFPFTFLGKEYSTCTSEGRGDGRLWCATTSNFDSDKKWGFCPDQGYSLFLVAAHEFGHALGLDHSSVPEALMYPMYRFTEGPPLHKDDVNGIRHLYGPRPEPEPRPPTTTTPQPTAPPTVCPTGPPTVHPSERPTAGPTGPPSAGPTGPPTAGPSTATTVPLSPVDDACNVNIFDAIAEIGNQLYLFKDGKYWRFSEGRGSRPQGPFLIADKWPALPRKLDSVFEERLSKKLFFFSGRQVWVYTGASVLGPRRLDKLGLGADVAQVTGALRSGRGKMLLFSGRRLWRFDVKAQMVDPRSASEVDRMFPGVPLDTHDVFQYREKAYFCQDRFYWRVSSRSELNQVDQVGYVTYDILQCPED
Stromelysin-1, sequence (P08254 whole entry): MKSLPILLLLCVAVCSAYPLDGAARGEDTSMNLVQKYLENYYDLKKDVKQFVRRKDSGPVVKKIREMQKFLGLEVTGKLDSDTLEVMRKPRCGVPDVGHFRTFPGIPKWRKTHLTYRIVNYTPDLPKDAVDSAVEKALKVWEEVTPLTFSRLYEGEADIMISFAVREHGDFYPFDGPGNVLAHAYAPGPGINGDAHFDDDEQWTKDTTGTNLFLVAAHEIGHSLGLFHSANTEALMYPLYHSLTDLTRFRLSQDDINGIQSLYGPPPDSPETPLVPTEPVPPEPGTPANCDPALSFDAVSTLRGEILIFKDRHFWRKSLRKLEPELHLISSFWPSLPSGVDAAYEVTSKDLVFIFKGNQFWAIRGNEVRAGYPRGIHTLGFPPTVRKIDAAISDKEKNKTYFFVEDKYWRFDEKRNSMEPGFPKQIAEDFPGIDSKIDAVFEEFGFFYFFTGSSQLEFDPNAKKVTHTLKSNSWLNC

| SMILES | IC50 [1] [nM] | IC50 (Interstitial collagenase) [nM] | IC50 (Stromelysin-1) [nM] | IC50 [2] [nM] | IC50 [3] [nM] | Ratio IC50 (Homo sapiens) |
| --- | --- | --- | --- | --- | --- | --- |
| CN1CC(CC(=O)N2CCCC2)C[C@H](C(=O)NO)[C@H]1C(=O)N1CCN(c2ccccc2)CC1 (mixture of isomers) | 92 | – | – | – | 167 | – |
| O=C(NO)[C@H]1CC(CC(=O)N2CC[C@@H](O)C2)CC[C@@H]1C(=O)N1CCN(c2ccccc2)CC1 (mixture of isomers) | 156 | – | – | – | 111 | – |
| CC(C)c1cccc(C2CCN(C(=O)[C@H]3CC[C@H](CC(=O)N4CCCCC4)C[C@@H]3C(=O)NO)CC2)c1 | > 5000 | > 5000 | > 5000 | > 5000 | 21 | – |
| O=C(NO)[C@H]1C[C@@H](CC(=O)N2CCCCC2)CC[C@@H]1C(=O)N1CCN(c2ccccc2)CC1 | 100 | > 5000 | > 5000 | 683 | 15 | – |
| O=C(NO)[C@H]1CC2(CC[C@@H]1C(=O)N1CCN(c3ccccc3)CC1)CC2 (mixture of isomers) | 106 | > 5000 | > 5000 | 577 | 196 | 2 |
| CN1CC(CC(=O)N2CCCCC2)C[C@H](C(=O)NO)[C@H]1C(=O)N1CCN(c2ccccc2)CC1 (mixture of isomers) | 81 | – | – | – | 77 | – |
| O=C(NO)[C@H]1CCCC[C@@H]1C(=O)N1CCN(c2ccccc2)CC1 | 180 | > 5000 | – | – | 1540 | – |
| CN1CCN(C(=O)CC2CC[C@H](C(=O)N3CCN(c4ccccc4)CC3)[C@@H](C(=O)NO)C2)CC1 (mixture of isomers) | 68 | > 5000 | > 5000 | 2500 | 30 | – |
| O=C(CC1CN[C@H](C(=O)N2CCC(c3ccccc3)C2)[C@@H](C(=O)NO)C1)NCCCCCNC(=O)OCc1ccccc1 (mixture of isomers) | 1280 | > 5000 | 5000 | 1790 | 302 | – |
| O=C(NO)[C@H]1CC(CC(=O)N2CCCC2)CC[C@@H]1C(=O)N1CCN(c2ccccc2)CC1 (mixture of isomers) | 271 | > 5000 | > 5000 | 1440 | 64 | – |
| O=C(NO)[C@H]1CC2(CC2)CN[C@@H]1C(=O)N1CCC(c2ccccc2)C1 (some centres undefined) | 998 | – | > 5000 | > 5000 | – | – |

Results, then the compound that gave them:

| IC50 [1] [nM] | IC50 (Interstitial collagenase) [nM] | IC50 (Stromelysin-1) [nM] | IC50 [2] [nM] | IC50 [3] [nM] | Ratio IC50 (Homo sapiens) | SMILES |
| --- | --- | --- | --- | --- | --- | --- |
| 321 | > 5000 | > 5000 | 1880 | – | – | O=C(NO)[C@H]1CC(CC(=O)N2CCCCC2)CC[C@@H]1C(=O)N1CCN(c2ccccc2)CC1 (mixture of isomers) |
| 1660 | > 5000 | > 5000 | > 5000 | 161 | – | NCCCCCNC(=O)CC1CN[C@H](C(=O)N2CCC(c3ccccc3)C2)[C@@H](C(=O)NO)C1 (mixture of isomers) |
| 1090 | – | – | – | – | – | O=C(NO)[C@H]1C[C@H](CC(=O)N2CCCCC2)CC[C@@H]1C(=O)N1CCN(c2ccccc2)CC1 |
| 236 | – | – | – | 83 | – | O=C(NO)[C@H]1CC(CC(=O)N2CCOCC2)CC[C@@H]1C(=O)N1CCN(c2ccccc2)CC1 (some centres undefined) |
| > 5000 | – | – | – | 915 | – | CC(C)c1cccc(C2CCN(C(=O)[C@H]3CC[C@@H](CC(=O)N4CCCCC4)C[C@@H]3C(=O)NO)CC2)c1 |
| 8 | – | – | – | 19 | – | O=C(NO)[C@H]1CC(CC(=O)N2CCCC2)CN[C@@H]1C(=O)N1CCN(c2ccccc2)CC1 (mixture of isomers) |
